Experimental data published in patent US20260191848A1, “METHODS OF REVERSING PARP-RESISTANCE IN CANCER” (THE TRUSTEES OF COLUMBIA UNIVERSITY IN THE CITY OF NEW YORK, priority 2023, published 2026).
“Also recorded” adds a separate entry of the source.

Key:
[1] = tested on: talazoparib-resistant Bard1-def tumors; assay: Talazoparib-resistant Bard1-def orthotopic allograft in B6/129F1 mice (tumor growth, weight, immunostaining, body weight); format: in vivo, mouse; settings: for body weight: from treatment initiation until endpoint, talazoparib 0.3 mg/kg/day, axitinib 30 mg/kg/day
Method: (§2) Treatment with Tal (0.3 mg/kg body weight per day, five days/week, oral gavage) began two weeks following tumor-cell injection. Tumors were collected after tumor relapse in the Tal-treated group and were then dissociated and selected to generate Tal-resistant Brca1-def breast cancer cell lines. […] Tal-resistant, Brca1-def tumors were then isolated at 13 weeks following tumor-cell injection. n=32 for Veh-treated mice; n=24 for Tal-treated mice. Data are presented as mean values±SEM. P values were determined by a two-tailed, unpaired, Mann-Whitney test. * at 2 weeks indicates P=0.0169; *** at 3 weeks indicates P=0.0007; **** at 5 and 7 weeks indicates P<0.0001. […] P values were determined by a two-tailed, unpaired, Mann-Whitney test. * at 3 weeks indicates P=0.0174; ns: not significant. […] Treatment began one-week post tumor-cell injection. […] Data are presented as mean values±SEM. P values were determined by a two-tailed, unpaired, Mann-Whitney test. ** at 3 and 4 weeks indicates P=0.0043; ** at 5 weeks indicates P=0.0095.

[2] = tested on: talazoparib-resistant Brca1-def tumors; assay: Talazoparib-resistant Brca1-def orthotopic allograft in B6/129F1 mice (tumor growth, weight, immunostaining, body weight); format: in vivo, mouse; settings: for body weight: from treatment initiation until endpoint, talazoparib 0.3 mg/kg/day, axitinib 30 mg/kg/day
Method: as §2

[3] = tested on: relapsed high-grade ovarian cancer; settings: relapsed high-grade ovarian cancer patients, p=0.007; cited from earlier work
[4] = tested on: Brca1-def Tal-sensitive tumors; assay: In-vivo PARPi-response-and-recurrence model, Brca1-def orthotopic allograft (talazoparib-sensitive)
Method: (§3) Treatment with Tal (0.3 mg/kg body weight per day, five days/week, oral gavage) began two weeks following tumor-cell injection. Tumors were collected after tumor relapse in the Tal-treated group and were then dissociated and selected to generate Tal-resistant Brca1-def breast cancer cell lines. […] Tal-resistant, Brca1-def tumors were then isolated at 13 weeks following tumor-cell injection. n=32 for Veh-treated mice; n=24 for Tal-treated mice. Data are presented as mean values±SEM. […] FIG. 1C, Mice were injected with the Tal-resistant (“Tal-Res”), Brca1-def breast cancer cell line isolated in B and then checked for sensitivity to Tal. n=21 for Veh-treated mice; n=31 for Tal-treated mice. […] Treatment began one-week post tumor-cell injection. […] Data are presented as mean values±SEM. […] FIG. 1F, Mice were injected with the Tal-Res, Bard1-def breast cancer cell line isolated in E and then checked for sensitivity to Tal. n=12 for Veh-treated mice; n=14 for Tal-treated mice.
(§4) To study mechanisms of PARPi resistance in vivo, mammary glands from syngeneic B6/129F1 mice were orthotopically injected with luciferase-labeled Brca1- or Bard1-deficient mammary cancer cell lines (hereafter referred to as Brca1-def and Bard1-def) derived from Brca1- or Bard1-conditionally deleted mice^23 (FIGS. 1A and 1D). As tumors started to grow, tumor-bearing mice were randomized and treated five days/week with either vehicle or the PARPi talazoparib (referred to as “Tal” in the figures) at a dose of 0.3 mg/kg body weight/day starting at either 14 days (Brca1-def) or 7 days (Bard1-def) post tumor-cell injection. Tumor size was monitored weekly (FIGS. 1B and 1E). […] While tumor growth in Brca1-def models was monitored for 13 weeks post tumor-cell injection, Bard1-def models could only be monitored for 5 weeks post tumor-cell injection due to the onset of cachexia, as described in the previous studies^36. PARPi-resistant tumors were then collected, and cancer cells were purified and re-injected into the mammary glands of new B6/129F1 recipient mice. Mice were treated following the same dosing schedule as described above.

[5] = tested on: Bard1-def Tal-sensitive tumors; assay: In-vivo PARPi-response-and-recurrence model, Bard1-def orthotopic allograft (talazoparib-sensitive)
Method: as §3, §4

[6] = tested on: talazoparib-resistant Brca1-def tumor cells (pAKT Ser473, pSTAT3); assay: Immunoblot after recombinant PGF treatment, talazoparib-resistant Brca1-def tumor cells (Con vs Flt1i); format: cell-based; settings: 50 ng/ml mouse recombinant PGF, serum-free medium, 15 s
Method: (§1) FIG. 18A-FIG. 18H—FLT1 activation in Brca1- and Bard1-def breast tumor cells induces pro-survival AKT signaling. (FIG. 18A, FIG. 18B) Immunoblot analysis was performed on lysates from Flt1-expressing (Con) and -deficient (Flt1i), talazoparib-resistant (“Res”) Brca1- and Bard1-def tumor cells, that were treated with 50 ng/ml of mouse PGF protein using antibodies against phosphorylated-AKT at serine 473 (pAKT Ser473), AKT, and β-actin. […] Scale bars, 20 μm. (FIG. 18D) Immunostained sections from (C) were quantified using automated QuPath software to identify positively stained cells. n=5 mice for Sen and Res groups for both models. Data were presented as mean values±SEM. […] (FIG. 18E) Representative images of IHC for pAKT Ser473 staining on talazoparib-treated “Tal”, Lenti-Con- and Flt1i-expressing Res tumor sections from both models (see FIG. 3C). Scale bars, 20 μm. […] (FIG. 18G) Representative images of IHC for pAKT Ser473 on Tal-treated and Tal+Axi-treated tumor sections from both models (see FIG. 4A/D). Scale bars, 20 μm. (FIG. 18H) Immunostained sections from (G) were quantified using automated QuPath software to identify positively stained cells. For the Brca1-def model, n=4 tumors from both Tal-treated and Tal+Axi-treated mice. For the Bard1-def model, n=5 tumors from both Tal-treated and Tal+Axi-treated mice. Data were presented as mean values±SEM. […]

[7] = tested on: talazoparib-resistant Bard1-def tumor cells (pAKT Ser473, pSTAT3); assay: Immunoblot after recombinant PGF treatment, talazoparib-resistant Bard1-def tumor cells (Con vs Flt1i); format: cell-based; settings: 50 ng/ml mouse recombinant PGF, serum-free medium, 10 min
Method: as §1

[8] = talazoparib alone 0.3 mg/kg/day, five days/week, vs vehicle

For `CNC(=O)c1ccccc1Sc1ccc2c(/C=C/c3ccccn3)n[nH]c2c1` [axitinib], the body weight [1] was “remained stable” and the body weight [2] was “remained stable”.

In the case of `O=C(c1cc(Cc2n[nH]c(=O)c3ccccc23)ccc1F)N1CCN(C(=O)C2CC2)CC1` [olaparib], the “median progression-free survival (PFS)” value [3] is given as 8.2 months.

With `Cn1ncnc1[C@H]1c2n[nH]c(=O)c3cc(F)cc(c23)N[C@@H]1c1ccc(F)cc1` [talazoparib] the body weight [1] was “remained stable”, the “tumor growth and weight at endpoint, Flt1-repressed (Flt1i) resistant tumor cells” value ([1]; talazoparib 0.3 mg/kg body weight/day, five days/week, Flt1i+Tal vs Lenti-Con+Tal, endpoint 3 weeks) was “re-sensitizes PARPi-resistant tumors to talazoparib” and the “tumor regression / response of PARPi-resistant tumor lines to PARPi treatment” value [1, 8] was “no tumor regression; also recorded: failed to respond in-vivo”. The body weight [2] was “remained stable”, the “tumor growth and weight at endpoint, Flt1-repressed (Flt1i) resistant tumor cells” value ([2]; talazoparib 0.3 mg/kg body weight/day, five days/week, Flt1i+Tal vs Lenti-Con+Tal, endpoint 4 weeks) was “re-sensitizes PARPi-resistant tumors to talazoparib” and the “tumor regression / response of PARPi-resistant tumor lines to PARPi treatment” value [2, 8] was “no tumor regression; also recorded: failed to respond in-vivo”. For the same molecule, the “relapse, time following the start of Tal treatment” value ([4]; Tal 0.3 mg/kg per day, five days/week, oral gavage, begun two weeks after tumor-cell injection) was “about seven”, the “development of drug resistance (recurrence of tumors)” value ([4]; continued talazoparib treatment, monitored 13 weeks post tumor-cell injection) was “eventually developed drug resistance; also recorded: eventually became refractory to the treatment” and the tumor growth ([4]; talazoparib 0.3 mg/kg body weight/day, five days/week, oral gavage, from 14 days post tumor-cell injection, vs vehicle) was “suppressed tumor growth for several weeks”. The “relapse tumors arose, time post tumor-cell injection” value ([5]; Tal treatment begun one week post tumor-cell injection) was “about three”, the “development of drug resistance (recurrence of tumors)” value ([5]; continued talazoparib treatment, monitored 5 weeks post tumor-cell injection) was “eventually developed drug resistance; also recorded: soon progressed” and the tumor growth ([5]; talazoparib 0.3 mg/kg body weight/day, five days/week, oral gavage, from 7 days post tumor-cell injection, vs vehicle) was “responded initially”.

B1: PGF: mouse recombinant PGF (R&D Systems, #465-PL-010), placental growth factor (protein)
chain: VHSQGALSAGNNSTEVEVVPFNEVWGRSYCRPMEKLVYILDEYPDEVSHIFSPSCVLLSRCSGCCGDEGLHCVPIKTANITMQILKIPPNRDPHFYVEMTFSQDVLCECRPILETTKAERRKTKGKRKRSRNSQTEEPHP
In the case of B1, the “activation of AKT (pAKT Ser473 immunoblot)” value [6] is reported as “FLT1-dependent activation of AKT”, the “activation of STAT3 (pSTAT3 immunoblot)” value [6] is reported as “not STAT3” and the “activation of AKT (pAKT Ser473 immunoblot)” value [7] is reported as “FLT1-dependent activation of AKT”. For the same molecule, the “activation of STAT3 (pSTAT3 immunoblot)” value [7] was “not STAT3”.
